Test results published in US12139480B2, “5-thiazolecarboxamide kinase inhibitor and uses thereof” (iOmx Therapeutics AG, priority 2018, dated 2024).

Legend:
ABL1 wt = molecular target: T1, ABL1 wt (Homo sapiens, UniProt P00519); assay: radiometric protein kinase assay (33PanQinase), IC50; assay type: biochemical
T1 construct: includes the ABL1 wild-type protein (amino acids P118-S525) and mutants forms; purchased ProQinase
T1 sequence (P00519 118-535 limits assumed): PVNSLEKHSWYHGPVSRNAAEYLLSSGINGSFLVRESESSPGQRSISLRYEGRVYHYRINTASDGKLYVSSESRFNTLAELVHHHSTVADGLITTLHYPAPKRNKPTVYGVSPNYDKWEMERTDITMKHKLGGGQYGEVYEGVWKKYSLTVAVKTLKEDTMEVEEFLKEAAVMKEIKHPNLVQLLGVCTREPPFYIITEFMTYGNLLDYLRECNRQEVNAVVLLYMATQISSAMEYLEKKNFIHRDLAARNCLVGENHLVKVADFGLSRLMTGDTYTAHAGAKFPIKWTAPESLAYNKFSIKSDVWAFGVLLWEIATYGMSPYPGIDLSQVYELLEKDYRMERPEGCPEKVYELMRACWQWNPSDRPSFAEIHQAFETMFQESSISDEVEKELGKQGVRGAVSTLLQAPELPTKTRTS
Experimental: (§1) Incorporation of 33Pi was determined with a microplate scintillation counter (Microbeta, Wallac).

SRC (GST-HIS-tag) = SRC (GST-HIS-tag) (Homo sapiens, UniProt P12931); assay: as above; assay type: biochemical
SRC (GST-HIS-tag), sequence (P12931 whole entry): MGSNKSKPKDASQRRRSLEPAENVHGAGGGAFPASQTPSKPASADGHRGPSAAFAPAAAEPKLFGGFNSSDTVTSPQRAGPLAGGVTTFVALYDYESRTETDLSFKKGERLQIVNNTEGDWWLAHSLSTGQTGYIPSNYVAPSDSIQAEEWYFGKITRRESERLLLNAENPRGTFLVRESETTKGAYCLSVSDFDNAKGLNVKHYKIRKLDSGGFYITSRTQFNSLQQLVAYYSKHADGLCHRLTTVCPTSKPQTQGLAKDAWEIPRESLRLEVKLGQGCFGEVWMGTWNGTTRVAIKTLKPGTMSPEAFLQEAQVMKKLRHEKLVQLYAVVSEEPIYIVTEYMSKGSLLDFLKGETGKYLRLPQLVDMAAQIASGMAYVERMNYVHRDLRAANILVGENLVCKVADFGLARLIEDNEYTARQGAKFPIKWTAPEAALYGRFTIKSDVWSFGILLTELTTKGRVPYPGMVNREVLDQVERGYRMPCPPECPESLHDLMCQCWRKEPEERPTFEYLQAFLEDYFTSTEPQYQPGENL
Experimental: as §1

M579-A2-luc tumour cells = assay: sensitisation of tumour cells to in-vitro TNF attack, luciferase-based killing assay; assay type: cell-based; details: TNF 10 ng/mL, compound between about 10 and 100 nM
Experimental: PANC1-luc is an HLA-A2.1+ luciferase-expressing pancreatic adenocarcinoma (PDAC) tumour cell line, and M579-A2-luc is an HLA-A2.1+ luciferase-expressing melanoma tumour cell line.
After lysis, luciferase assay buffer is added and immediately the luciferase intensity was measured by using the TECAN-Spark microplate reader.

SIK1 = molecular target: T2, SIK1 (Homo sapiens, UniProt P57059); assay: radiometric protein kinase assay (33PanQinase), IC50; assay type: biochemical
T2 construct: purchased ProQinase
T2 sequence (P57059 whole entry): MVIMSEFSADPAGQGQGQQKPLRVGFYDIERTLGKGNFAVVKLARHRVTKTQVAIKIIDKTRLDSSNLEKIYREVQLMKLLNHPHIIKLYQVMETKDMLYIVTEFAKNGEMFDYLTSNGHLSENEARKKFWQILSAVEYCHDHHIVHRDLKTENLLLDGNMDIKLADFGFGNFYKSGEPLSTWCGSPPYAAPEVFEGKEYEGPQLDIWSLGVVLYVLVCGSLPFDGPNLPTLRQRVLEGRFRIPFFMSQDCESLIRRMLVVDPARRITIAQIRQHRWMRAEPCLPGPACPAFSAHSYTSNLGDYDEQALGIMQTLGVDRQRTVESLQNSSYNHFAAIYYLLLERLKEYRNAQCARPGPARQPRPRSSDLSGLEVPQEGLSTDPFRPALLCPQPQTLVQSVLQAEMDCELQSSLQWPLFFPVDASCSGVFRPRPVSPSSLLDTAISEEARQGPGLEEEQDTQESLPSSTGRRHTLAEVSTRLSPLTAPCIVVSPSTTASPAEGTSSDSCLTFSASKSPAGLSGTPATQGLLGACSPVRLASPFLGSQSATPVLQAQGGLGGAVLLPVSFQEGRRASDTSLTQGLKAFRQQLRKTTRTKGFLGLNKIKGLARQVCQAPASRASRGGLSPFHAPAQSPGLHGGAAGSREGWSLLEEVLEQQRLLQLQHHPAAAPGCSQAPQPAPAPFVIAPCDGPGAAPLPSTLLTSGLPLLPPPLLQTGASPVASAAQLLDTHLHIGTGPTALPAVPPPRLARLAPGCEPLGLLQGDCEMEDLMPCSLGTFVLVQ
Experimental: as §1

SIK3 = molecular target: T3, SIK3 (Homo sapiens, UniProt Q9Y2K2); assay: as above; assay type: biochemical
T3 construct: purchased ProQinase
T3 sequence (Q9Y2K2 whole entry): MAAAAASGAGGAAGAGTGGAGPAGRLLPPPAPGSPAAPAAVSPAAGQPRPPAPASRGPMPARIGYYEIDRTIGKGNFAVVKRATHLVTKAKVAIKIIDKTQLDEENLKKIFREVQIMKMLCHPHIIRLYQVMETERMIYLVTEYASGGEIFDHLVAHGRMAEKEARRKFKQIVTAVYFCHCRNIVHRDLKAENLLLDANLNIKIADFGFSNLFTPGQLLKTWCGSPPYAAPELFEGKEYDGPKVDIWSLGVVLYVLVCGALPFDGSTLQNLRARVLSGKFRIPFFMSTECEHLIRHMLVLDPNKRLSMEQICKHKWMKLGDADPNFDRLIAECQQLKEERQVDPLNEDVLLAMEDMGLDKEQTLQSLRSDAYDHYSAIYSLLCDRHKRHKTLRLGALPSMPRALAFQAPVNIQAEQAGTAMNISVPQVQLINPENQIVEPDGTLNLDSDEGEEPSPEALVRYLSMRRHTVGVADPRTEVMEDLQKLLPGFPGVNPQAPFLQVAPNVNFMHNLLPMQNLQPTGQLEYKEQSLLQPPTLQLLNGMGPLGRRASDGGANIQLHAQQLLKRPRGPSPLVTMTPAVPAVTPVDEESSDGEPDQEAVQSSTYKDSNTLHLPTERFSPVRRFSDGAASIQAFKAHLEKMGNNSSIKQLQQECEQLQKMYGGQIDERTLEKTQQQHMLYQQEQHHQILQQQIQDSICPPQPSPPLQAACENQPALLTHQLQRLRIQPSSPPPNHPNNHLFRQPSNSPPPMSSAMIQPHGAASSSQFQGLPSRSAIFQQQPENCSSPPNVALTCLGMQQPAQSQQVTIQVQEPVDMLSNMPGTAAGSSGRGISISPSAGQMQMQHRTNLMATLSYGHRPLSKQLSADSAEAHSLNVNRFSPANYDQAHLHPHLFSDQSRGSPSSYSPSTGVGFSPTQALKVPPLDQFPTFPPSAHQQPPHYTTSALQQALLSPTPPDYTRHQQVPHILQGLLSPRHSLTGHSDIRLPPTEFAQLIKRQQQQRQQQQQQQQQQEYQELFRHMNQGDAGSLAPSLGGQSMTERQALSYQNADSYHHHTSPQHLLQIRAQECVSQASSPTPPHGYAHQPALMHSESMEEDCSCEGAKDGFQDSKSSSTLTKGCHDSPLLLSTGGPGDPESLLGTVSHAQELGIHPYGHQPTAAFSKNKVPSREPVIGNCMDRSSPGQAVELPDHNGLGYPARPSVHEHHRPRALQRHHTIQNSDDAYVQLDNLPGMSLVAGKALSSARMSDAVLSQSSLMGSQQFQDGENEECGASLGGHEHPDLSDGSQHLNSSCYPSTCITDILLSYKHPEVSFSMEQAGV
Experimental: as §1

SIK2 = molecular target: T4, SIK2 (Homo sapiens, UniProt Q9H0K1); assay: as above; assay type: biochemical
T4 construct: purchased ProQinase
T4 sequence (Q9H0K1 whole entry): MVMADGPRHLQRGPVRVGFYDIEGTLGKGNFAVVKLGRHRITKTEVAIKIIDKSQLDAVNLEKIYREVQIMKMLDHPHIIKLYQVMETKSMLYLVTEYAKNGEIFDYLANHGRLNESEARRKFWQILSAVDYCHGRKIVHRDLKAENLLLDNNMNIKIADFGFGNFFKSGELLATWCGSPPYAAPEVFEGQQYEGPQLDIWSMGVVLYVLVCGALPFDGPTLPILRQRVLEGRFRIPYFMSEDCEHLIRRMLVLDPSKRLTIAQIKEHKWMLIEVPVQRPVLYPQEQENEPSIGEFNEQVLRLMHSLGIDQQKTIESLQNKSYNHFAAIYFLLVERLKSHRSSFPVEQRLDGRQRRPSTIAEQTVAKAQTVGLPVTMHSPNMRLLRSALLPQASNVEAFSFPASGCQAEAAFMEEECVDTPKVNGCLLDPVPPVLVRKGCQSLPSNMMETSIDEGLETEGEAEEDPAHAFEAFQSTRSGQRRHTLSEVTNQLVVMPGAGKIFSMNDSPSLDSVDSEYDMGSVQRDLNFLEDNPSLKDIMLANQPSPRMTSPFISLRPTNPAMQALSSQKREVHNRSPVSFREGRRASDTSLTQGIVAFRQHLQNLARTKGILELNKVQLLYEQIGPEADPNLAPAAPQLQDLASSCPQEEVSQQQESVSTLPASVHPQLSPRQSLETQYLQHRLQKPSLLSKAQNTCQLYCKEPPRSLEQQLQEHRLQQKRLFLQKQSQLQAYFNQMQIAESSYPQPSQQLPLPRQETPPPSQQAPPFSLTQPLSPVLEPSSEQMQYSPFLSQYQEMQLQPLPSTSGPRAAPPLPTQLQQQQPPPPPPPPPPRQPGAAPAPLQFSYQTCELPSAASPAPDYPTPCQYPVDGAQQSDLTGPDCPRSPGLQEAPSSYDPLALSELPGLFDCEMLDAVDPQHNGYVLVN
Experimental: as §1

K562 human CML tumours = details: dasatinib 8-50 mg/kg PO once a day for 10 days, 5-days-on and 2-days off; imatinib high doses; cited from earlier work
K562 CML cells = details: similar study; dasatinib 10 and 30 mg/kg/day; imatinib 200 mg/kg/day; cited from earlier work
[1] = humans; prescribing information; cited from earlier work

SMILES	inhibitory activity (ABL1 wt)	inhibitory activity (SRC (GST-HIS-tag))	cytotoxicity in the presence of TNF compared to inhibitor alone (M579-A2-luc tumour cells)	inhibitory activity (SIK1)	inhibitory activity (SIK3)	inhibitory activity (SIK2)	tumour response (K562 human CML tumours)	survival / intracranial tumour growth (K562 CML cells)	terminal / elimination half-life [1]
Cc1nc(Nc2ncc(C(=O)Nc3c(Cl)cccc3Br)s2)cc(N2CCN(CCO)CC2)n1 [Compound B1, N-(2-bromo-6-chlorophenyl)-2-((6-(4-(2-hydroxyethyl)piperazin-1-yl)-2-methylpyrimidin-4-yl)amino)thiazole-5-carboxamide]	pan-SIK and ABL1 & SRC inhibitor	pan-SIK and ABL1 & SRC inhibitor	increased cytotoxicity	–	–	–	–	–	–
COc1c(F)cccc1NC(=O)c1cnc(Nc2cc(N3CCN(CCO)CC3)nc(C)n2)s1 [Compound B4, N-(3-fluoro-2-methoxyphenyl)-2-((6-(4-(2-hydroxyethyl)piperazin-1-yl)-2-methylpyrimidin-4-yl)amino)thiazole-5-carboxamide]	potent inhibitor	potent inhibitor	fails to exhibit cytotoxicity	strong inhibitor	weak inhibitor	strong inhibitor	–	–	–
CCOc1cccc(Cl)c1NC(=O)c1cnc(Nc2cc(N3CCN(CCO)CC3)nc(C)n2)s1 [Compound B8, N-(2-chloro-6-ethoxyphenyl)-2-((6-(4-(2-hydroxyethyl)piperazin-1-yl)-2-methylpyrimidin-4-yl)amino)thiazole-5-carboxamide]	potent ABL1 & SRC inhibitor	potent ABL1 & SRC inhibitor	fails to exhibit cytotoxicity	low inhibitory activity	low inhibitory activity	low inhibitory activity	–	–	–
Cc1ccc(NC(=O)c2ccc(CN3CCN(C)CC3)cc2)cc1Nc1nccc(-c2cccnc2)n1 [imatinib]	–	–	–	–	–	–	failed to produce a comparative response	failed to inhibit intracranial tumour growth	–
Cc1cn(-c2cc(NC(=O)c3ccc(C)c(Nc4nccc(-c5cccnc5)n4)c3)cc(C(F)(F)F)c2)cn1 [nilotinib]	–	–	–	–	–	–	–	–	approximately 17 hours
